Experimental data as given in the kinase profiling compilation of Christmann-Franck et al. (2016).

Assays:
Assay in all cases: KINOMEscan competition binding
Conditions in all cases: compound 0.1 µM
[1] = test system: ABL1 (human), P00519 [H396P]
AKT2 (human) = AKT2 (human) (UniProt P31751)
BMPR1A (human) = BMPR1A (human) (UniProt P36894)
BMPR2 (human) = BMPR2 (human) (UniProt Q13873)
CDC42BPG (human) = CDC42BPG (human) (UniProt Q6DT37)
CDK14 (human) = CDK14 (human) (UniProt O94921)
CDK15 (human) = CDK15 (human) (UniProt Q96Q40)
CDK19 (human) = CDK19 (human) (UniProt Q9BWU1)
CSNK1A1L (human) = CSNK1A1L (human) (UniProt Q8N752)
DYRK1B (human) = DYRK1B (human) (UniProt Q9Y463)
[2] = test system: EGFR (human), P00533 [752-759 del]
FER (human) = FER (human) (UniProt P16591)
MAP2K4 (human) = MAP2K4 (human) (UniProt P45985)
MAP2K6 (human) = MAP2K6 (human) (UniProt P52564)
MAP2K7 (human) = MAP2K7 (human) (UniProt O14733)
MAP3K11 (human) = MAP3K11 (human) (UniProt Q16584)
MAP3K14 (human) = MAP3K14 (human) (UniProt Q99558)
MAP3K5 (human) = MAP3K5 (human) (UniProt Q99683)
MAPK14 (human) = MAPK14 (human) (UniProt Q16539)
MARK2 (human) = MARK2 (human) (UniProt Q7KZI7)
MARK4 (human) = MARK4 (human) (UniProt Q96L34)
MAST1 (human) = MAST1 (human) (UniProt Q9Y2H9)
MKNK2 (human) = MKNK2 (human) (UniProt Q9HBH9)
MYLK2 (human) = MYLK2 (human) (UniProt Q9H1R3)
NEK5 (human) = NEK5 (human) (UniProt Q6P3R8)
NEK6 (human) = NEK6 (human) (UniProt Q9HC98)
NUAK2 (human) = NUAK2 (human) (UniProt Q9H093)
PAK3 (human) = PAK3 (human) (UniProt O75914)
PIK3C2B (human) = PIK3C2B (human) (UniProt O00750)
PKN1 (human) = PKN1 (human) (UniProt Q16512)
PLK3 (human) = PLK3 (human) (UniProt Q9H4B4)
PRKCI (human) = PRKCI (human) (UniProt P41743)
RIOK2 (human) = RIOK2 (human) (UniProt Q9BVS4)
RPS6KA3 KD1 (human) = RPS6KA3 KD1 (human) (UniProt P51812)
SIK3 (human) = SIK3 (human) (UniProt Q9Y2K2)
STK4 (human) = STK4 (human) (UniProt Q13043)
TGFBR2 (human) = TGFBR2 (human) (UniProt P37173)
TIE1 (human) = TIE1 (human) (UniProt P35590)
TNIK (human) = TNIK (human) (UniProt Q9UKE5)
TNK1 (human) = TNK1 (human) (UniProt Q13470)

Sequence of TGFBR2 (human) (P37173 whole entry, looked up): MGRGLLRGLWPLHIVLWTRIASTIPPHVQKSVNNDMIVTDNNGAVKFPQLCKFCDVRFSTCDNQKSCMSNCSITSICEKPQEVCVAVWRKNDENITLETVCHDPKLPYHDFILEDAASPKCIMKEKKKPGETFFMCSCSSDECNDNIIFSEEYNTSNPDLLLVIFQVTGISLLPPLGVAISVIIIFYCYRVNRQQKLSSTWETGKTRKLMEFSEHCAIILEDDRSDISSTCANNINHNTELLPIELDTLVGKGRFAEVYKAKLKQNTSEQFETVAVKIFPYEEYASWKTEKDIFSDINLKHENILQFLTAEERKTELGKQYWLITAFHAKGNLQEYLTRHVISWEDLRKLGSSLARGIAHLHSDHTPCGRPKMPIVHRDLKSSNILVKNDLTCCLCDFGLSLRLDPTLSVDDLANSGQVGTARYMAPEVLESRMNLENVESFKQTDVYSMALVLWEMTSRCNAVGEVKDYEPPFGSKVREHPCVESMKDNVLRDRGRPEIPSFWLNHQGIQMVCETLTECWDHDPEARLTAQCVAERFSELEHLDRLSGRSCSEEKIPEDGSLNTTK
Sequence of MKNK2 (human) (Q9HBH9 whole entry, looked up): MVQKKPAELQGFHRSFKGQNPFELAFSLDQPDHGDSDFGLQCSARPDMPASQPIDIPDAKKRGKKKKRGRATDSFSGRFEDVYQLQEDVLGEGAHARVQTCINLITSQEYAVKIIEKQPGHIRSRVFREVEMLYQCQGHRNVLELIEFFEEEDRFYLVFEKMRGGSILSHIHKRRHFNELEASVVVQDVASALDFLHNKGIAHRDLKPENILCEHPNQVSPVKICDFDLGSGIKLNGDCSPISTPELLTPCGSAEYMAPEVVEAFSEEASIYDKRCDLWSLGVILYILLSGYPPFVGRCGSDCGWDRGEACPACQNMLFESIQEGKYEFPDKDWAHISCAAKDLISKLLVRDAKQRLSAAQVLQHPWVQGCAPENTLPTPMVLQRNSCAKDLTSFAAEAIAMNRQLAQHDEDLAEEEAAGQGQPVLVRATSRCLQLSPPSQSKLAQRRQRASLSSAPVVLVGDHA
Sequence of DYRK1B (human) (Q9Y463 whole entry, looked up): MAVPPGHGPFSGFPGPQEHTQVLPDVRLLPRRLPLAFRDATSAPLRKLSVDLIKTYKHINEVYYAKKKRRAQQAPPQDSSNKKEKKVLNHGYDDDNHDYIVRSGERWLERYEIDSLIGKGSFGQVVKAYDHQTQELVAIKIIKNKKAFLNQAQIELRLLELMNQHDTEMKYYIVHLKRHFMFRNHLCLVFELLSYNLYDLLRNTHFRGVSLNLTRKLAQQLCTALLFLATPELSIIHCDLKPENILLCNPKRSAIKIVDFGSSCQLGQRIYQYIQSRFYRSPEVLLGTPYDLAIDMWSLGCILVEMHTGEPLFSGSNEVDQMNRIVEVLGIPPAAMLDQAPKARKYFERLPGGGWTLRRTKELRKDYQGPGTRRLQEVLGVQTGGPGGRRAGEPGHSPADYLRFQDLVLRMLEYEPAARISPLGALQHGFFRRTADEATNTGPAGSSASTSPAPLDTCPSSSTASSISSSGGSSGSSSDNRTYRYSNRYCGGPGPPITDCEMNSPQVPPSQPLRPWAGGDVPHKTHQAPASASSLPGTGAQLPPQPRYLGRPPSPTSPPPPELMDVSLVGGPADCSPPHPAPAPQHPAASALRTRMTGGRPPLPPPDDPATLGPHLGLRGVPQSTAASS
Sequence of NEK6 (human) (Q9HC98 whole entry, looked up): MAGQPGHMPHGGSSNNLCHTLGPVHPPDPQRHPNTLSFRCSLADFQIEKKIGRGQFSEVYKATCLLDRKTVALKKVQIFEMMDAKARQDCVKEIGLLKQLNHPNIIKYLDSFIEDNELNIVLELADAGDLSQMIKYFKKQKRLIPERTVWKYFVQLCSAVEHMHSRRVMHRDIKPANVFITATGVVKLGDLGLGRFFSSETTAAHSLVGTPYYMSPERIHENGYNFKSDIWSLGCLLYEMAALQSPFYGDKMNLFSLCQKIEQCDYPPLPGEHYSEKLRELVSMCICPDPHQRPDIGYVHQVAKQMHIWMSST
Sequence of MYLK2 (human) (Q9H1R3 whole entry, looked up): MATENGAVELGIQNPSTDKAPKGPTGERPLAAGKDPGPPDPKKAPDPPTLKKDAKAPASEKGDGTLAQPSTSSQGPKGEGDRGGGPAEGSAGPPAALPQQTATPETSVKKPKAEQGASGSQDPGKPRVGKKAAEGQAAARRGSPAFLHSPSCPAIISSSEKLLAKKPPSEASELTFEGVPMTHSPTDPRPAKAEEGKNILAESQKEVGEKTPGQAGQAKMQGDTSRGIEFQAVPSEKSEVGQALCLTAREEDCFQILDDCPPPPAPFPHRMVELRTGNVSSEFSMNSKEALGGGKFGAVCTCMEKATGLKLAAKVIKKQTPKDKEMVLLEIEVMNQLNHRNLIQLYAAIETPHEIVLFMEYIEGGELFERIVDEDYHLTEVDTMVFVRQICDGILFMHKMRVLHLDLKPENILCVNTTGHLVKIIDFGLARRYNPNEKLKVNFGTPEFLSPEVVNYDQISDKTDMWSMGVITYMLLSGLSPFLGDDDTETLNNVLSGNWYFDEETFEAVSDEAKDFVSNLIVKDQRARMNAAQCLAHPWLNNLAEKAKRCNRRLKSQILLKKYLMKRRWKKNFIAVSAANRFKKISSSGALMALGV
Sequence of SIK3 (human) (Q9Y2K2 whole entry, looked up): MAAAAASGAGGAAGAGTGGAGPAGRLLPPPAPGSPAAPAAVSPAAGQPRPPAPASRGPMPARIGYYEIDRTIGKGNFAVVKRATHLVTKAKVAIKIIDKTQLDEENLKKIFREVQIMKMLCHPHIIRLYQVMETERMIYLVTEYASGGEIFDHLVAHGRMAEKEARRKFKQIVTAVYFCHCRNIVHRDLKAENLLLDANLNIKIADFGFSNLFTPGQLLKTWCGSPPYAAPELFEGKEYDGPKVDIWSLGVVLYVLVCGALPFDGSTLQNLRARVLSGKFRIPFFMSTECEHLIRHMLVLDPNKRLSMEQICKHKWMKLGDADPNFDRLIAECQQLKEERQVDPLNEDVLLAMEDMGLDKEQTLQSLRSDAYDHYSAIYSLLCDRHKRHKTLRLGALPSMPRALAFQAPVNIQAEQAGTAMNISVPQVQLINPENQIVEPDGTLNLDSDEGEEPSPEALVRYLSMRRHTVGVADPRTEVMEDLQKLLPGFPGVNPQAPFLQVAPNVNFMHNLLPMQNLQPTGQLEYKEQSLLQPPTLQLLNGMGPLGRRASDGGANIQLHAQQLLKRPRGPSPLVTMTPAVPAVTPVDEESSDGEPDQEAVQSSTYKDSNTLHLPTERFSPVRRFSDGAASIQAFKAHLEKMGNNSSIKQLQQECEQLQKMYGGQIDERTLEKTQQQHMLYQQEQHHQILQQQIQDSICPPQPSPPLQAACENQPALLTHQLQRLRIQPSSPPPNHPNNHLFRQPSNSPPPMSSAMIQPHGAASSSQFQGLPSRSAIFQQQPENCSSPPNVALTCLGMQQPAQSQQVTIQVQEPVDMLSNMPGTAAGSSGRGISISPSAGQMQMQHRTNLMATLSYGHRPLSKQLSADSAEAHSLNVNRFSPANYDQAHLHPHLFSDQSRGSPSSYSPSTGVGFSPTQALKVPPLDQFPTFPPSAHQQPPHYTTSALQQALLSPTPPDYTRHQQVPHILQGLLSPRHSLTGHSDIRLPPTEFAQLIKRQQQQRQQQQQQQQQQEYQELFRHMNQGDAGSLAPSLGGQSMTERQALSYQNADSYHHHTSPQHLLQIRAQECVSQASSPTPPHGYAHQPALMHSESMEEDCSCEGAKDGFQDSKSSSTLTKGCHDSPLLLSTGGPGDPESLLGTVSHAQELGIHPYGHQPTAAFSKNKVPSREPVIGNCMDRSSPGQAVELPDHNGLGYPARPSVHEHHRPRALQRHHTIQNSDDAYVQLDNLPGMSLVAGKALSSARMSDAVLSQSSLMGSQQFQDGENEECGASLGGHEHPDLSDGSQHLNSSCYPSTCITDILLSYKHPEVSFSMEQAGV
Sequence of RIOK2 (human) (Q9BVS4 whole entry, looked up): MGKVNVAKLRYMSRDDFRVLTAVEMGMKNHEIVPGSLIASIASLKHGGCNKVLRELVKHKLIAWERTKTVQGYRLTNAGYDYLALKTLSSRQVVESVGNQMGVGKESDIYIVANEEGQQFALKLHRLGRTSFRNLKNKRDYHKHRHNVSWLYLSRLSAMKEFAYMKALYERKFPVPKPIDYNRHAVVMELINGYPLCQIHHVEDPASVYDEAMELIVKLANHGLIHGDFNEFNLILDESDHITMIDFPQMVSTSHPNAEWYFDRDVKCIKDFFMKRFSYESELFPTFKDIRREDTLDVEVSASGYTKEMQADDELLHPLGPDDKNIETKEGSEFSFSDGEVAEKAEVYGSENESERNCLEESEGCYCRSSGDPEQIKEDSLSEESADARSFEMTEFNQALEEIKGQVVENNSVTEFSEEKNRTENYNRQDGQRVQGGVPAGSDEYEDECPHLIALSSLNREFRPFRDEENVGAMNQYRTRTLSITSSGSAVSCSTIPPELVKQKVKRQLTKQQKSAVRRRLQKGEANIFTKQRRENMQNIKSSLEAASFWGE
Sequence of MAP2K6 (human) (P52564 whole entry, looked up): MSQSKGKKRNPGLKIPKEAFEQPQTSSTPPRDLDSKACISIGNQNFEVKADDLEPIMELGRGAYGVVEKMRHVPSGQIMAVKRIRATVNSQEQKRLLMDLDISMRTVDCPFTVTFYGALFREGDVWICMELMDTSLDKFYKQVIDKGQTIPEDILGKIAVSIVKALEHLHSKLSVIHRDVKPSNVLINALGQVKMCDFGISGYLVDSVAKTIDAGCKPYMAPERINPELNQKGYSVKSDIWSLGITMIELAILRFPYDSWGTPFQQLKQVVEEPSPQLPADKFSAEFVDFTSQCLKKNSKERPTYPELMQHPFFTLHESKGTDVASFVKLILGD

CCc1ccc(C(=O)Nc2cc(CN3CCN(C)CC3)cc(C(F)(F)F)c2)cc1C#Cc1cnc2ccnn2c1
kinase still bound, per cent of control [1]: 100% | kinase still bound, per cent of control (AKT2 (human)): 83% | kinase still bound, per cent of control (BMPR1A (human)): 100% | kinase still bound, per cent of control (BMPR2 (human)): 90% | kinase still bound, per cent of control (CDC42BPG (human)): 100% | kinase still bound, per cent of control (CDK14 (human)): 81% | kinase still bound, per cent of control (CDK15 (human)): 100% | kinase still bound, per cent of control (CDK19 (human)): 90% | kinase still bound, per cent of control (CSNK1A1L (human)): 83% | kinase still bound, per cent of control (DYRK1B (human)): 53% | kinase still bound, per cent of control [2]: 100% | kinase still bound, per cent of control (FER (human)): 70% | kinase still bound, per cent of control (MAP2K4 (human)): 100% | kinase still bound, per cent of control (MAP2K6 (human)): 100% | kinase still bound, per cent of control (MAP2K7 (human)): 100% | kinase still bound, per cent of control (MAP3K11 (human)): 83% | kinase still bound, per cent of control (MAP3K14 (human)): 85% | kinase still bound, per cent of control (MAP3K5 (human)): 100% | kinase still bound, per cent of control (MAPK14 (human)): 85% | kinase still bound, per cent of control (MARK2 (human)): 100% | kinase still bound, per cent of control (MARK4 (human)): 71% | kinase still bound, per cent of control (MAST1 (human)): 100% | kinase still bound, per cent of control (MKNK2 (human)): 100% | kinase still bound, per cent of control (MYLK2 (human)): 100% | kinase still bound, per cent of control (NEK5 (human)): 100% | kinase still bound, per cent of control (NEK6 (human)): 100% | kinase still bound, per cent of control (NUAK2 (human)): 100% | kinase still bound, per cent of control (PAK3 (human)): 41% | kinase still bound, per cent of control (PIK3C2B (human)): 100% | kinase still bound, per cent of control (PKN1 (human)): 100% | kinase still bound, per cent of control (PLK3 (human)): 100% | kinase still bound, per cent of control (PRKCI (human)): 100% | kinase still bound, per cent of control (RIOK2 (human)): 100% | kinase still bound, per cent of control (RPS6KA3 KD1 (human)): 100% | kinase still bound, per cent of control (SIK3 (human)): 100% | kinase still bound, per cent of control (STK4 (human)): 63% | kinase still bound, per cent of control (TGFBR2 (human)): 100% | kinase still bound, per cent of control (TIE1 (human)): 51% | kinase still bound, per cent of control (TNIK (human)): 84% | kinase still bound, per cent of control (TNK1 (human)): 52%
